Laboratory results reported in patent US6481154B1, “Method of large-scale propagation of trees of genus Swietenia” (Sumitomo Forestry Co., Ltd., priority 2000, dated 2002).

Legend:
Type in all cases: cell-based
[1] = system: single shoots of Swietenia macrophylla; experiment: Rooting condition (1): modified B5 medium for 3 months
Experimental: (§1) A large number of shoots obtained in (4) were cut to single shoots which were cultured in the following procedures:
(1) The single shoots were cultured on a modified B5 medium containing 0 to 10.0 mg/l of IBA for 3 months, while transplanting the shoots to a fresh medium of the same composition every month.
(§2) All the above (1)-(4) cultures were conducted under conditions wherein a temperature was 26±2° C., a humidity was 60 to 90% and a light intensity was 3,000 to 9,000 Lux. Further, all the modified media in the above (1)-(4) contained 2.8 g/l of gelright.

[2] = system: single shoots of Swietenia macrophylla; experiment: Rooting conditions (2): modified MS medium for 3 months
Experimental: as §1
(2) The single shoots were cultured on a modified MS medium containing 0 to 10.0 mg/l of IBA for 3 months, while transplanting the shoots to a fresh medium of the same composition every month.
as §2

[3] = system: single shoots of Swietenia macrophylla; experiment: Rooting conditions (4): modified B5, then modified MS, then modified B5, one month each
Experimental: as §1
(4) The single shoots were cultured on a modified B5 medium containing 0 to 10.0 mg/l of IBA for one month, then on a modified MS medium containing 0 to 10.0 mg/l of IBA for one month and further on a modified B5 medium containing 0 to 10.0 mg/l of IBA for one month.
as §2

O=C(O)CCCc1c[nH]c2ccccc12 [IBA, 3-indole butyric acid]
80.8%: Withering rate (%) For first one month ([1]; IBA 10.0 mg/l) | Withering rate (%) For second one month ([2]; IBA 10.0 mg/l)
3.7%: Rooting rate (%) For second one month ([1]; IBA 1.0 mg/l) | Rooting rate (%) For third one month ([1]; IBA 1.0 mg/l) | Rooting rate (%) For second one month ([2]; IBA 3.0 mg/l)
40.0%: Withering rate (%) For second one month ([1]; IBA 2.0 mg/l) | Withering rate (%) For first one month ([1]; IBA 4.0 mg/l) | Withering rate (%) For second one month ([3]; IBA 2.0 mg/l) | Withering rate (%) For second one month ([3]; IBA 2.5 mg/l) | Withering rate (%) For third one month ([3]; IBA 2.5 mg/l) | Withering rate (%) For first one month ([3]; IBA 4.0 mg/l)
0.0%: Rooting rate (%) For first one month ([1]; IBA 0.1 mg/l) | Rooting rate (%) For second one month ([1]; IBA 0.1 mg/l) | Rooting rate (%) For third one month ([1]; IBA 0.1 mg/l) | Rooting rate (%) For first one month ([1]; IBA 1.0 mg/l) | Rooting rate (%) For first one month ([1]; IBA 2.0 mg/l) | Rooting rate (%) For first one month ([1]; IBA 2.5 mg/l) | Rooting rate (%) For first one month ([1]; IBA 3.0 mg/l) | Rooting rate (%) For second one month ([1]; IBA 3.0 mg/l) | Rooting rate (%) For third one month ([1]; IBA 3.0 mg/l) | Rooting rate (%) For first one month ([1]; IBA 4.0 mg/l) | Rooting rate (%) For first one month ([1]; IBA 5.0 mg/l) | Rooting rate (%) For second one month ([1]; IBA 5.0 mg/l) | Rooting rate (%) For third one month ([1]; IBA 5.0 mg/l) | Rooting rate (%) For first one month ([1]; IBA 10.0 mg/l) | Rooting rate (%) For second one month ([1]; IBA 10.0 mg/l) | Rooting rate (%) For third one month ([1]; IBA 10.0 mg/l) | Rooting rate (%) For first one month ([2]; IBA 0.1 mg/l) | Rooting rate (%) For second one month ([2]; IBA 0.1 mg/l) | Rooting rate (%) For third one month ([2]; IBA 0.1 mg/l) | Withering rate (%) For first one month ([2]; IBA 0.1 mg/l) | Rooting rate (%) For first one month ([2]; IBA 1.0 mg/l) | Withering rate (%) For first one month ([2]; IBA 1.0 mg/l) | Rooting rate (%) For first one month ([2]; IBA 2.0 mg/l) | Withering rate (%) For first one month ([2]; IBA 2.0 mg/l) | Rooting rate (%) For first one month ([2]; IBA 2.5 mg/l) | Withering rate (%) For first one month ([2]; IBA 2.5 mg/l) | Rooting rate (%) For first one month ([2]; IBA 3.0 mg/l) | Withering rate (%) For first one month ([2]; IBA 3.0 mg/l) | Rooting rate (%) For first one month ([2]; IBA 4.0 mg/l) | Rooting rate (%) For second one month ([2]; IBA 4.0 mg/l) | Rooting rate (%) For third one month ([2]; IBA 4.0 mg/l) | Rooting rate (%) For first one month ([2]; IBA 5.0 mg/l) | Rooting rate (%) For second one month ([2]; IBA 5.0 mg/l) | Rooting rate (%) For third one month ([2]; IBA 5.0 mg/l) | Rooting rate (%) For first one month ([2]; IBA 10.0 mg/l) | Rooting rate (%) For second one month ([2]; IBA 10.0 mg/l) | Rooting rate (%) For third one month ([2]; IBA 10.0 mg/l) | Rooting rate (%) For first one month ([3]; IBA 0.1 mg/l) | Rooting rate (%) For second one month ([3]; IBA 0.1 mg/l) | Rooting rate (%) For third one month ([3]; IBA 0.1 mg/l) | Rooting rate (%) For first one month ([3]; IBA 1.0 mg/l) | Rooting rate (%) For second one month ([3]; IBA 1.0 mg/l) | Rooting rate (%) For first one month ([3]; IBA 2.0 mg/l) | Withering rate (%) For first one month ([3]; IBA 2.0 mg/l) | Rooting rate (%) For first one month ([3]; IBA 2.5 mg/l) | Withering rate (%) For first one month ([3]; IBA 2.5 mg/l) | Rooting rate (%) For first one month ([3]; IBA 3.0 mg/l) | Withering rate (%) For first one month ([3]; IBA 3.0 mg/l) | Rooting rate (%) For first one month ([3]; IBA 4.0 mg/l) | Rooting rate (%) For second one month ([3]; IBA 4.0 mg/l) | Rooting rate (%) For third one month ([3]; IBA 4.0 mg/l) | Rooting rate (%) For first one month ([3]; IBA 5.0 mg/l) | Rooting rate (%) For second one month ([3]; IBA 5.0 mg/l) | Rooting rate (%) For third one month ([3]; IBA 5.0 mg/l) | Rooting rate (%) For first one month ([3]; IBA 10.0 mg/l) | Rooting rate (%) For second one month ([3]; IBA 10.0 mg/l) | Rooting rate (%) For third one month ([3]; IBA 10.0 mg/l)
3.8%: Rooting rate (%) For second one month ([2]; IBA 1.0 mg/l) | Rooting rate (%) For third one month ([2]; IBA 1.0 mg/l) | Rooting rate (%) For second one month ([2]; IBA 2.0 mg/l)
73.1%: Withering rate (%) For third one month ([1]; IBA 3.0 mg/l) | Withering rate (%) For third one month ([2]; IBA 1.0 mg/l)
4.0%: Rooting rate (%) For second one month ([1]; IBA 4.0 mg/l) | Rooting rate (%) For third one month ([1]; IBA 4.0 mg/l)
11.1%: Withering rate (%) For first one month ([1]; IBA 2.5 mg/l) | Rooting rate (%) For third one month ([2]; IBA 3.0 mg/l)
13.3%: Withering rate (%) For first one month ([1]; IBA 2.0 mg/l) | Rooting rate (%) For second one month ([2]; IBA 2.5 mg/l)
18.5%: Rooting rate (%) For second one month ([1]; IBA 2.5 mg/l) | Rooting rate (%) For third one month ([1]; IBA 2.5 mg/l)
14.8%: Withering rate (%) For first one month ([1]; IBA 1.0 mg/l)
84.6%: Withering rate (%) For first one month ([1]; IBA 0.1 mg/l) | Withering rate (%) For second one month ([1]; IBA 5.0 mg/l) | Withering rate (%) For third one month ([2]; IBA 0.1 mg/l) | Withering rate (%) For first one month ([3]; IBA 0.1 mg/l)
16.7%: Rooting rate (%) For third one month ([2]; IBA 2.5 mg/l)
65.4%: Withering rate (%) For first one month ([2]; IBA 10.0 mg/l)
96.2%: Withering rate (%) For second one month ([1]; IBA 10.0 mg/l)
20.0%: Rooting rate (%) For third one month ([3]; IBA 3.0 mg/l)
30.0%: Rooting rate (%) For second one month ([3]; IBA 2.5 mg/l)
70.0%: Withering rate (%) For third one month ([3]; IBA 1.0 mg/l) | Withering rate (%) For third one month ([3]; IBA 3.0 mg/l) | Withering rate (%) For second one month ([3]; IBA 4.0 mg/l) | Withering rate (%) For first one month ([3]; IBA 10.0 mg/l)
10.3%: Withering rate (%) For first one month ([2]; IBA 4.0 mg/l)
58.6%: Withering rate (%) For second one month ([2]; IBA 4.0 mg/l)
96.3%: Withering rate (%) For third one month ([1]; IBA 1.0 mg/l)
6.7%: Rooting rate (%) For second one month ([1]; IBA 2.0 mg/l) | Rooting rate (%) For third one month ([1]; IBA 2.0 mg/l)
88.5%: Withering rate (%) For second one month ([3]; IBA 0.1 mg/l)
76.9%: Withering rate (%) For third one month ([2]; IBA 2.0 mg/l) | Withering rate (%) For second one month ([2]; IBA 5.0 mg/l)
55.6%: Withering rate (%) For second one month ([1]; IBA 1.0 mg/l) | Withering rate (%) For second one month ([2]; IBA 3.0 mg/l)
50.0%: Withering rate (%) For second one month ([3]; IBA 1.0 mg/l) | Withering rate (%) For third one month ([3]; IBA 2.0 mg/l) | Rooting rate (%) For third one month ([3]; IBA 2.5 mg/l) | Withering rate (%) For first one month ([3]; IBA 5.0 mg/l)
70.4%: Withering rate (%) For third one month ([2]; IBA 3.0 mg/l)
69.2%: Withering rate (%) For second one month ([2]; IBA 0.1 mg/l)
60.0%: Withering rate (%) For second one month ([3]; IBA 3.0 mg/l)
96.6%: Withering rate (%) For third one month ([2]; IBA 4.0 mg/l)
100.0%: Withering rate (%) For second one month ([1]; IBA 0.1 mg/l) | Withering rate (%) For third one month ([1]; IBA 0.1 mg/l) | Withering rate (%) For third one month ([1]; IBA 4.0 mg/l) | Withering rate (%) For third one month ([1]; IBA 5.0 mg/l) | Withering rate (%) For third one month ([1]; IBA 10.0 mg/l) | Withering rate (%) For third one month ([2]; IBA 5.0 mg/l) | Withering rate (%) For third one month ([2]; IBA 10.0 mg/l) | Withering rate (%) For third one month ([3]; IBA 0.1 mg/l) | Withering rate (%) For third one month ([3]; IBA 4.0 mg/l) | Withering rate (%) For third one month ([3]; IBA 5.0 mg/l) | Withering rate (%) For second one month ([3]; IBA 10.0 mg/l) | Withering rate (%) For third one month ([3]; IBA 10.0 mg/l)
40.7%: Withering rate (%) For second one month ([1]; IBA 2.5 mg/l)
46.2%: Withering rate (%) For second one month ([2]; IBA 1.0 mg/l) | Withering rate (%) For first one month ([2]; IBA 5.0 mg/l)
90.0%: Withering rate (%) For second one month ([3]; IBA 5.0 mg/l)
53.8%: Withering rate (%) For first one month ([1]; IBA 5.0 mg/l)
11.5%: Rooting rate (%) For third one month ([2]; IBA 2.0 mg/l)
26.9%: Withering rate (%) For first one month ([1]; IBA 3.0 mg/l)
72.0%: Withering rate (%) For second one month ([1]; IBA 4.0 mg/l)
73.3%: Withering rate (%) For third one month ([1]; IBA 2.0 mg/l)
26.7%: Withering rate (%) For second one month ([2]; IBA 2.5 mg/l)
30.8%: Withering rate (%) For second one month ([2]; IBA 2.0 mg/l)
57.7%: Withering rate (%) For second one month ([1]; IBA 3.0 mg/l)
66.7%: Withering rate (%) For third one month ([1]; IBA 2.5 mg/l) | Withering rate (%) For third one month ([2]; IBA 2.5 mg/l)
10.0%: Rooting rate (%) For third one month ([3]; IBA 1.0 mg/l) | Withering rate (%) For first one month ([3]; IBA 1.0 mg/l) | Rooting rate (%) For second one month ([3]; IBA 2.0 mg/l) | Rooting rate (%) For third one month ([3]; IBA 2.0 mg/l) | Rooting rate (%) For second one month ([3]; IBA 3.0 mg/l)
